Data reported in patent publication US20020177625A1, “Class of glaucoma drugs to enhance aqueous humor outflow and lower intra-ocular pressure” (The Regents of the University of California, a California …, priority 2001, published 2002).

What was measured:
Na—K—Cl co-transporter = target: T1, Na—K—Cl co-transporter (Homo sapiens, UniProt P55011); assay: Na—K—Cl co-transport measured as bumetamide-sensitive K influx (86Rb tracer) in human TM cell monolayers; format: cell-based; conditions: human TM cells
T1 construct: endogenous in cells; host or cells: cultured human trabecular meshwork (TM) cells, normal or glaucomatous donors
T1 sequence (P55011 1-1212): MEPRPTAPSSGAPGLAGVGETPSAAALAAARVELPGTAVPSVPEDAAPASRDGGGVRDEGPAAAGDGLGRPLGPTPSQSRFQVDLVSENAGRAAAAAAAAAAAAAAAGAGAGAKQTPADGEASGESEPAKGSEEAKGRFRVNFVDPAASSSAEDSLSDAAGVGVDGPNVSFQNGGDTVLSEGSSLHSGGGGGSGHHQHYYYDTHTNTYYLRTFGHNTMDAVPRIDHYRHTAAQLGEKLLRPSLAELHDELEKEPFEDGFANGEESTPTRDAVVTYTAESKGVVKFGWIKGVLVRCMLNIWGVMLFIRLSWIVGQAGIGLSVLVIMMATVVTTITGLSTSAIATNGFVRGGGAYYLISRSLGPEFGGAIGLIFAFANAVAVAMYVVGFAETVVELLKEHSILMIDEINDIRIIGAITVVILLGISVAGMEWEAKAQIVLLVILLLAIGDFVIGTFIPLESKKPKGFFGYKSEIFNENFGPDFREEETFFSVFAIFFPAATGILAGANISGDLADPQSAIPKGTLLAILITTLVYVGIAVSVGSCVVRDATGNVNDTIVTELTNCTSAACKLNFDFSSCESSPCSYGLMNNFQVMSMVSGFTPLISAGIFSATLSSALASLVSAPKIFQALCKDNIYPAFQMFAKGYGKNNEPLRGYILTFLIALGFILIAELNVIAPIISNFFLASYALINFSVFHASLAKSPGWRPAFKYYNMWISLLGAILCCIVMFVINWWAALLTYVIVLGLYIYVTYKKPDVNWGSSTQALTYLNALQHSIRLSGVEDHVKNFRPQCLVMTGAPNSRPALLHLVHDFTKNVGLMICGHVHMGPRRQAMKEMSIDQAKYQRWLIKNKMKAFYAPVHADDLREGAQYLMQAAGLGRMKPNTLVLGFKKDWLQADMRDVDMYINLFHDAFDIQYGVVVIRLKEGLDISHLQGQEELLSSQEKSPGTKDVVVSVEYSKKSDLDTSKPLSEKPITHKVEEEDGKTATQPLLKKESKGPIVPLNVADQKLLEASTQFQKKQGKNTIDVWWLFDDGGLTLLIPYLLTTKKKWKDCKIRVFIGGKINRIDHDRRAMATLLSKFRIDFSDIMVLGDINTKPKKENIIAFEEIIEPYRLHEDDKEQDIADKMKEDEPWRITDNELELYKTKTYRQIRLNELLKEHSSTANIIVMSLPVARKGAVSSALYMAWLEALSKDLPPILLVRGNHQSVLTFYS
Procedure: Na—K—Cl co-transport was measured as ouabain-insensitive, bumetamide-sensitive potassium influx, using ^86Rb as a tracer for potassium. […] The assay medium also contained ^86Rb (1 μCi/ml) (Dupont New England Nuclear, Boston, Mass.). The assay was terminated by rinsing the wells with ice-cold isotonic MgCl2, then extracting the contents with 0.2% sodium dodecyl sulfate (SDS), and determining the amount of radioactive contents by liquid scintillation. Osmolarities of all preincubation and assay media were verified by osmometry (Model 3W2, Advanced Instruments, Norwood, Mass.).
The cells were pretreated with Hepes-buffered minimal essential medium (MEM) ±10 μM bumetamide ±1 mM ouabain for 5 min, then assayed for 5 min in the same media plus ^86Rb. […] Data are means ±SEM, n=12.
Na—K—Cl co-transport activity of glaucomatous human TM cells was assessed as ouabain-insensitive, bumetamide-sensitive K influx, using ^86Rb as a tracer for K, as described previously. TM cells were preincubated for 5 minutes in a Hepes-buffered MEM containing 0 or 10 μM bumetamide in the presence of 1 mM ouabain, followed by a 5 minute assay in media of identical composition except that they also contained ^86Rb. […] Data are mean values ±SEM in seven normal TM cultures (donor age range, 38-68 years, n=12 in each cell culture) and in seven glaucomatous cultures (donor age range 41-75 years, n=7 in each cell culture).
Human TM cells were equilibrated in Hepes-buffered MEM for 30 minutes and then pretreated for 5 minutes in media containing 1 mM ouabain, 10 or 0 μM bumetamide, and 0.3 μM to 1 mM niflumic acid (NA). Cells were then assayed for bumetamide-sensitive K influx for 5 minutes in media identical to the pretreatment media but also containing ^86Rb (1 μCi/ml). […] Dashed line indicates control level of Na—K—Cl co-transport. Data are means ±SEM of at least 4 determinations from 3 experiments.

TM cells = assay: Intracellular [Cl] of TM cells; format: cell-based; conditions: niflumic acid 100 μM

K influx value versus 0 mM NA control (Na—K—Cl co-transporter; niflumic acid 0.1 μM): not significantly different
Na—K—Cl co-transporter activity (Na—K—Cl co-transporter; niflumic acid 0.3 μM to 100 μM): significantly stimulate
SMILES: O=C(O)c1cccnc1Nc1cccc(C(F)(F)F)c1 [niflumic acid]
intracellular [Cl] of the TM cells (TM cells): significantly reduced
